Experimental data reported in ChEMBL document CHEMBL1156463, “Survivin down-regulation plays a crucial role in 3-hydroxy-3-methylglutaryl coenzyme A reductase inhibitor-induced apoptosis in cancer” (J Biol Chem, 2007).
Active and inactive are the calls of the source. The rule behind the calls is not given here.

Legend:
SW480 [1] = test: Decrease in survivin expression in human SW480 cells at 20 uM after 24 hrs by immunoblot analysis; type: functional, cell-based
HT-29 = test: Growth inhibition of human HT29 cells after 96 hrs by MTS assay; type: functional, cell-based; details: HT-29, 96 h
SW480 [2] = test: Effect on Bax expression in human SW480 cells; type: functional, cell-based
SW480 [3] = test: Reversal of growth inhibition of human SW480 cells at 20 uM after 48 hrs by […] in presence of geranylgeranyl pyrophosphate; type: functional, cell-based
[4] = biological target: RAC-alpha serine/threonine-protein kinase (Homo sapiens) (UniProt P31749); test: Inhibition of FBS-stimulated increase in Akt phosphorylation in human SW480 cells at 20 uM by immunoblot analysis; type: cell-based
RAC-alpha serine/threonine-protein kinase (Homo sapiens), sequence (P31749 whole entry): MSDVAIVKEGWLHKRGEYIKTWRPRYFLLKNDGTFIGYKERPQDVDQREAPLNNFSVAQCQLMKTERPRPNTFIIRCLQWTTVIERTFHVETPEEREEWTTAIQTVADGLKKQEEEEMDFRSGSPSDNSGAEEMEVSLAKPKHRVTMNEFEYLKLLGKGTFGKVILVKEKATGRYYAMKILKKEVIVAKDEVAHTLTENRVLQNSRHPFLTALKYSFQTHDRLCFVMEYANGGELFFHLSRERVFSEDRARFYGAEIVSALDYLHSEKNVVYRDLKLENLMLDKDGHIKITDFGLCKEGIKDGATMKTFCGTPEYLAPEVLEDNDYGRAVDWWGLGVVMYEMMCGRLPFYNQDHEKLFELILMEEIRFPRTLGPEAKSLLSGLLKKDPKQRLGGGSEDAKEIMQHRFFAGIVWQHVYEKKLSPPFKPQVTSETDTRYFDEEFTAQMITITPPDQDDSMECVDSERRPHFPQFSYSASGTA

SW480 [5] = test: Reversal of inhibition of FBS-stimulated increase in Ras protein expression in human SW480 cells assessed as GTP-bound protein at 20 uM by immunoblot analysis; type: functional, cell-based
SW480 [6] = test: Growth inhibition of human SW480 cells after 96 hrs by MTS assay; type: functional, cell-based; details: SW480, 96 h
SW480 [7] = test: Induction of apoptosis in human SW480 cells assessed as increase in hypodiploid DNA content at 20 uM after 48 hrs by flow cytometry relative to control; type: functional
SW480 [8] = test: Inhibition of FBS-stimulated increase in Ras protein expression in human SW480 cells assessed as GTP-bound protein at 20 uM by immunoblot analysis; type: functional, cell-based
SW480 [9] = test: Reversal of decrease in isoprenylated Ras level in human SW480 cells at 20 uM after 48 hrs by immunoblot analysis in presence of geranylgeranyl pyrophosphate; type: functional, cell-based
SW480 [10] = test: Reversal of reduction in survivin expression in human SW480 cells at 20 uM after 48 hrs by immunoblot analysis in presence of 100 uM mevalonate; type: functional, cell-based
LS180 [11] = test: Blockade of growth inhibition of survivin gene transfected human LS180 cells after 72 hrs by MTS method; type: functional, cell-based
SW480 [12] = test: Decrease in survivin mRNA expression in human SW480 cells at 20 uM after 48 hrs by RT-PCR technique; type: functional
SW480 [13] = test: Reversal of growth inhibition of human SW480 cells at 20 uM after 48 hrs by MTS assay in presence of >50 uM mevalonate; type: functional, cell-based
SW480 [14] = test: Induction of cell cycle arrest in human SW480 cells by accumulation at S phase at 20 uM after 48 hrs by flow cytometry; type: functional, cell-based
LS180 [15] = test: Inhibition of survivin expression in parent human LS180 cells at 20 uM by immunoblot analysis; type: functional, cell-based
SW480 [16] = test: Induction of apoptosis in human SW480 cells at 20 uM after 48 hrs by annexin-V propidium iodide staining method; type: functional
SW480 [17] = test: Reversal of decrease in isoprenylated Ras level in human SW480 cells at 20 uM after 48 hrs by immunoblot analysis in presence of squalene; type: functional, cell-based
SW480 [18] = test: Reversal of decrease in isoprenylated Ras level in human SW480 cells at 20 uM after 48 hrs by immunoblot analysis in presence of farnesyl pyrophosphate; type: functional, cell-based
SW480 [19] = test: Induction of cell cycle arrest in human SW480 cells by accumulation at G2/M phase at 20 uM after 48 hrs by flow cytometry; type: functional, cell-based
SW480 [20] = test: Decrease in survivin expression in human SW480 cells at 20 uM after 48 hrs by immunoblot analysis; type: functional, cell-based
SW480 [21] = test: Reversal of reduction in survivin mRNA expression in human SW480 cells at 20 uM after 48 hrs by RT-PCR technique in presence of 100 uM mevalonate; type: functional, cell-based
LS180 [22] = test: Inhibition of survivin expression in survivin gene transfected human LS180 cells at 20 uM immunoblot analysis; type: functional, cell-based
LS180 [23] = test: Blockade of growth inhibition of human LS180 cells after 72 hrs by MTS method; type: functional, cell-based
SW480 [24] = test: Reversal of growth inhibition of human SW480 cells at 20 uM after 48 hrs by […] in presence of farnesyl pyrophosphate; type: functional, cell-based
[25] = Growth inhibition of human LS180 cells after 96 hrs by MTS assay; type: functional, cell-based; details: LS180, 96 h
SW480 [26] = test: Reversal of decrease in isoprenylated Ras level in human SW480 cells at 20 uM after 48 hrs by immunoblot analysis in presence of mevalonate; type: functional, cell-based
SW480 [27] = test: Reversal of growth inhibition of human SW480 cells at 20 uM after 48 hrs by […] in presence of squalene; type: functional, cell-based
SW480 [28] = test: Decrease in isoprenylated Ras level in human SW480 cells at 20 uM after 48 hrs by immunoblot analysis; type: functional, cell-based
SW480 [29] = test: Induction of cell cycle arrest in human SW480 cells by accumulation at G0/G1 phase at 20 uM after 48 hrs by flow cytometry; type: functional, cell-based

O=c1cc(N2CCOCC2)oc2c(-c3ccccc3)cccc12
Activity (SW480 [1]): Active

CC[C@H](C)C(=O)O[C@H]1C[C@@H](C)C=C2C=C[C@H](C)[C@H](CC[C@@H]3C[C@@H](O)CC(=O)O3)[C@H]21 [LOVASTATIN]
IC50 (HT-29): 46.8 µM | Activity (SW480 [2]): inactive | Activity (SW480 [3]): Active | Activity [4]: Active | Activity (SW480 [5]): Active | IC50 (SW480 [6]): 7.1 µM | Activity (SW480 [7]): 20.7% | Activity (SW480 [8]): Active | Activity (SW480 [9]): Active | Activity (SW480 [10]): Active | Activity (LS180 [11]): Dose-dependent effect | Activity (SW480 [12]): 60% | Activity (SW480 [13]): Active | Activity (SW480 [14]): inactive | Activity (LS180 [15]): Active | Activity (SW480 [16]): 24.2% | Activity (SW480 [17]): inactive | Activity (SW480 [18]): Active | Activity (SW480 [19]): inactive | Activity (SW480 [20]): Active | Activity (SW480 [21]): Active | Activity (LS180 [22]): Active | Activity (LS180 [23]): Active | Activity (SW480 [24]): Active | IC50 [25]: 25.3 µM | Activity (SW480 [26]): Active | Activity (SW480 [27]): inactive | Activity (SW480 [28]): Active | Activity (SW480 [29]): inactive
